Data published in PubChem BioAssay AID1996.
In brackets after ≈: the same amount, converted by molar mass.

details: buffer; pH 7.4; 200.0 µM

Row | SMILES | solubility kinetic
1 | N#Cc1cnc(NOCc2ccc(Cl)cc2)nc1 | 0.0074 mg/mL (≈ 28.4 µM)
2 | Cc1ccc(S(=O)(=O)CCC(=O)Nc2ccccc2C)cc1 | 0.0219 mg/mL (≈ 69 µM)
3 | COc1ccc(CNc2nc3ccccc3n2C)c(O)c1 | 0.0107 mg/mL (≈ 37.8 µM)
4 | c1ccc(-c2nc(NC3CCCC3)c3ccccc3n2)cc1 | 0.0031 mg/mL (≈ 10.7 µM)
5 | CCCCn1c(N)c(N(CC(C)C)C(=O)c2cnccn2)c(=O)[nH]c1=O | 0.0539 mg/mL (≈ 150 µM)
6 | CCOc1ccc(NC(=S)NCc2ccc3[nH]c(C)cc3c2)cc1 | 0.0114 mg/mL (≈ 33.6 µM)
7 | N#Cc1ccc(C(=O)NN2C(=O)NC3(CCCCC3)C2=O)cc1 | > 0.0468 mg/mL
8 | C=CCNC(=S)N1CCC(C(=O)c2ccc(C)cc2)CC1 | > 0.0454 mg/mL
9 | CC(=O)C1=C(O)C(=O)N(c2cccnc2)C1c1cccc([N+](=O)[O-])c1 (stereo unspecified) | > 0.0509 mg/mL
10 | CCOC(=O)c1c(/N=C/C2=C(O)CCCC2=O)sc2c1CCCC2 | 0.0036 mg/mL (≈ 10.4 µM)
11 | CC(=O)Nc1ccc(Sc2ccccc2C(=O)O)c(C(=O)O)c1 | 0.0423 mg/mL (≈ 128 µM)
12 | COc1ccc(OC)c(CNS(=O)(=O)c2cn(C)cn2)c1 | 0.0465 mg/mL (≈ 149 µM)
13 | COc1ccc(S(=O)(=O)N2CCOCC2)c2ccccc12 | 0.0406 mg/mL (≈ 132 µM)
14 | CCOC(=O)Nc1cccc(OCC(=O)Nc2ccc3c(c2)CCC3)c1 | 0.0052 mg/mL (≈ 14.7 µM)
15 | O=C(Nc1ccc(F)c(Cl)c1)C1CC2CCC1C2 (stereo unspecified) | 0.0028 mg/mL (≈ 10.5 µM)
16 | CC(C)CCc1noc(CN(C)CCC2CCOCC2)n1 | > 0.0443 mg/mL
17 | O=C(NCCC1CC1(Cl)Cl)Nc1ccccc1 (stereo unspecified) | > 0.041 mg/mL
18 | O=C(NCCc1ccccc1)C1CCCN(c2cnccn2)C1 (stereo unspecified) | 0.0459 mg/mL (≈ 148 µM)
19 | COc1ccc(-c2noc(=O)n2Cc2ccc(F)cc2Cl)cc1 | 0.0035 mg/mL (≈ 10.5 µM)
20 | Cc1cccc(OCCCN2CCOCC2)c1C | 0.0254 mg/mL (≈ 102 µM)
21 | C/C=C/c1ccc(OCc2cc(=O)n3cc(C)ccc3n2)c(OC)c1 | 0.0091 mg/mL (≈ 27.1 µM)
22 | COc1ccc(S(=O)(=O)N2CCOCC2)cc1NC(=O)CSc1nnc(C2CC2)n1C | > 0.0701 mg/mL
23 | Cc1cc(Cl)c2oc(C(=O)N3CCC(O)(c4ccccc4)CC3)c(C)c2c1 | 0.0022 mg/mL (≈ 5.73 µM)
24 | CC(=O)c1ccc(NC(=O)C(C)Sc2ccccn2)cc1 (stereo unspecified) | > 0.0451 mg/mL
25 | C/C(=C\c1ccccc1)CN1CCN(C)CC1 | 0.0181 mg/mL (≈ 78.6 µM)
26 | COc1ccc2[nH]c(C(=O)NCc3ccc4c(c3)OCO4)cc2c1 | 0.0011 mg/mL (≈ 3.39 µM)

Other lines, results leading:

Row | solubility kinetic | SMILES
27 | 0.0006 mg/mL (≈ 1.68 µM) | CC(=O)c1c(COC(=O)c2ccc(Cl)cc2)nc2ccccc2[n+]1[O-]
28 | 0.0269 mg/mL (≈ 103 µM) | COc1ccc(CNC(=O)Cc2cccs2)cc1
29 | 0.0362 mg/mL (≈ 147 µM) | NC(=O)C12CCCC(Br)(CCC1)C2
30 | > 0.0356 mg/mL | CC1=C(C(N)=O)C(c2cccs2)NC(=O)N1 (stereo unspecified)
31 | > 0.0378 mg/mL | CCn1cc(S(=O)(=O)Nc2cccnc2)cn1
32 | > 0.0587 mg/mL | NS(=O)(=O)c1ccc(NS(=O)(=O)c2ccc(Br)cc2)cc1
33 | < 0.0003 mg/mL | O=[N+]([O-])c1ccc(OCC2CC(c3ccccc3)=NO2)cc1 (stereo unspecified)
34 | 0.0061 mg/mL (≈ 26.4 µM) | COC(=O)c1sccc1NC(=S)OC
35 | > 0.0521 mg/mL | O=C(NCCN1CCOCC1)c1cc(Br)ccc1Cl
36 | > 0.0407 mg/mL | O=C(CS(=O)c1ccc(F)cc1)N1CCOCC1 (stereo unspecified)
37 | > 0.0472 mg/mL | CC(=O)c1ccccc1OCCOc1ncnc2sccc12
38 | 0.0235 mg/mL (≈ 64.3 µM) | C=CCN1C(=O)C(C)(C)N(C(=O)c2cccc([N+](=O)[O-])c2)c2ccccc21
39 | > 0.045 mg/mL | CC(C)c1ccc(Nc2ccc(C(=O)O)cc2[N+](=O)[O-])cc1
40 | 0.0439 mg/mL (≈ 137 µM) | CCNc1ccc(C(=O)OCC(=O)N2CCCC2)cc1[N+](=O)[O-]
41 | < 0.0002 mg/mL | O=C(NCCN1CCCCC1)Nc1cccc(Cl)c1Cl
42 | > 0.0429 mg/mL | CCCC(=O)Nc1cc(OC)c(C(=O)OC)cc1Cl
43 | 0.0226 mg/mL (≈ 88.5 µM) | COc1ccc(CC(=O)NCc2ccccc2)cc1
44 | > 0.0451 mg/mL | CCc1ccc2oc(C(=O)N3CCN(C)CC3)cc(=O)c2c1

Row | solubility kinetic | SMILES
45 | 0.0427 mg/mL (≈ 133 µM) | CN1CCN(C(=O)C2CC(=O)N(c3ccc(Cl)cc3)C2)CC1 (stereo unspecified)
46 | > 0.037 mg/mL | Cc1ccccc1CC(=O)NC1CCN(C)CC1
47 | > 0.0342 mg/mL | O=C(NC1CC1)C(=O)c1c[nH]c2ccccc12
48 | > 0.0576 mg/mL | CCOc1cccc(CNc2ccc(O)cc2)c1OCc1ccc(Cl)cc1
49 | > 0.0353 mg/mL | Cc1ccc(OCC(O)CN2CCCC2)cc1 (stereo unspecified)
50 | > 0.0474 mg/mL | O=C(/C=C/c1ccco1)NC(=S)Nc1ccc(C(=O)O)cc1
51 | > 0.0398 mg/mL | Cc1cc(C)nc(SCC(=O)NC2CCCC2)n1
52 | > 0.0458 mg/mL | O=C(CNC(=O)c1cccc(F)c1)N/N=C/c1cccs1
53 | 0.0021 mg/mL (≈ 7.08 µM) | COc1ccc(Cl)cc1NC(=O)CN1CCCCCC1
54 | > 0.0384 mg/mL | CCCCC(=O)Nc1cc(Cl)ccc1C(=O)O
55 | 0.0029 mg/mL (≈ 8.07 µM) | CCCCCOc1ccc(C(=O)OC(C)C(=O)NCc2ccco2)cc1 (stereo unspecified)
56 | > 0.0274 mg/mL | OCc1nc2ccc(Cl)cc2[nH]1
57 | > 0.0697 mg/mL | O=C(COC(=O)c1cc(S(=O)(=O)N2CCOCC2)ccc1O)Nc1ccc2c(c1)OCO2
58 | 0.0005 mg/mL (≈ 1.48 µM) | CCN1C(=O)c2ccc(C(=O)Nc3ccc4c(c3)OCO4)cc2C1=O
59 | > 0.0557 mg/mL | C[C@H](NC(=O)c1ccco1)C(=O)OCC(=O)N1CC(=O)Nc2ccccc21
60 | > 0.0579 mg/mL | O=C(CN1C(=O)c2cccc([N+](=O)[O-])c2C1=O)NNC(=O)c1ccc(F)cc1
61 | > 0.0425 mg/mL | O=C(C1CCCO1)N1CCN(C(=S)NC2CC2)CC1 (stereo unspecified)
